A word on the pIC50: it is the IC50 on a negative log10 scale, so that one unit is a factor of ten.

Here are results for 9 molecules from patent US20260022142A1, “MACROCYCLIC IMMUNOMODULATORS” (Bristol-Myers Squibb Company, priority 2022, published 2026).

pIC50: −log10 of the molar value. Bridge positions count the residues as written; N and C are the ends. Square brackets hold non-standard residues; d marks the D form. Peptide text beside a SMILES is read from it. * marks the point of attachment. ξ: configuration not given here. Phe(4-CONH2) = NC(=O)c1ccc(C[C@H](N)C(=O)O)cc1; Phe(4-COOH) = N[C@@H](Cc1ccc(C(=O)O)cc1)C(=O)O; Bip = N[C@@H](Cc1ccc(-c2ccccc2)cc1)C(=O)O; Tyr(3-Me) = Cc1cc(C[C@H](N)C(=O)O)ccc1O; Phe(3-Me) = Cc1cccc(C[C@H](N)C(=O)O)c1; ξBip = NC(Cc1ccc(-c2ccccc2)cc1)C(=O)O; Val(3-OH) = CC(C)(O)[C@H](N)C(=O)O; 4Pal = N[C@@H](Cc1ccncc1)C(=O)O; Cha = N[C@@H](CC1CCCCC1)C(=O)O; Cit = NC(=O)NCCC[C@H](N)C(=O)O; Ile(3ξ) = CCC(C)[C@H](N)C(=O)O; Dap(Me) = CNC[C@H](N)C(=O)O; 12Ado = NCCCCCCCCCCCC(=O)O; hSer = N[C@@H](CCO)C(=O)O; Carboxymethyl = O=C(O)C*; Orn = NCCC[C@H](N)C(=O)O; Aun = NCCCCCCCCCCC(=O)O; Dab = NCC[C@H](N)C(=O)O; Dap = NC[C@H](N)C(=O)O; ξD = NC(CC(=O)O)C(=O)O; AEEA = NCCOCCOCC(=O)O

T1 sequence (Q15116 25-288): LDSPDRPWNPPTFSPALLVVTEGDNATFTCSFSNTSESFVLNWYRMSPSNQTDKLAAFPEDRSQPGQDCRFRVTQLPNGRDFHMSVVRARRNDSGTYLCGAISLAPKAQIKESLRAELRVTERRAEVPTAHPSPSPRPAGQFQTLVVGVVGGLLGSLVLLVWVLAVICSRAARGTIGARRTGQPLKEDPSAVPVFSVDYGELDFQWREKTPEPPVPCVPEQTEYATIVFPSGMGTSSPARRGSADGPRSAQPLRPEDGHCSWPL

The experiment has as its target T1, PD-1/PD-L1 interaction (PE-labeled human PD-L1-Ig binding to Jurkat cell line over-expressing human PD-1) (Homo sapiens, UniProt Q15116).
T1 construct: expressed in transfected cells; host or cells: Jurkat
In words: Jurkat-PD-1 Cell Binding High-Content Screening Assay (CBA). Type of experiment: cell-based. The conditions noted are these: Jurkat cell line over-expressing human PD-1; PE-labeled PD-L1-Ig 20 nM final; read-out: Jurkat hPD1-PDL1 IC50. In outline:
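Jurkat cells over-expressing human PD-1 (8×10^3 per well, DMEM/10% FCS) preincubated with compound 2 h at 37° C, then PE-labeled human PD-L1-Ig (20 nM final) added for 1 h. Cells fixed with paraformaldehyde, Hoechst-stained, and bound fluorescence quantified by high-content imaging.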
As for `CNC[C@@H]1NC(=O)CSC[C@@H](C(=O)N[C@@H](CCN)C(=O)NCCCCCCCCCCCC(=O)O)NC(=O)[C@H](CCCN)NC(=O)[C@H](C(C)C)NC(=O)[C@H](CC2CCCCC2)NC(=O)[C@H](CCN)NC(=O)[C@@H](CC(C)C)NC(=O)[C@H](CCCN)NC(=O)[C@H](Cc2ccc(O)cc2)NC(=O)[C@H](Cc2ccc(-c3ccccc3)cc2)NC(=O)[C@H](C(C)C)NC(=O)[C@H](Cc2cccc(C)c2)NC(=O)[C@H](CC(=O)O)NC(=O)[C@H](Cc2ccc(OCC(=O)O)cc2)NC1=O` [Compound 3592] ({CH2CO}-[Dap(Me)]Y(Carboxymethyl)D[Phe(3-Me)]V[Bip]Y[Orn][dL][Dab][Cha]V[Orn]C[Dab][12Ado]-OH; thioether N-14), the pIC50 is 8.07.
`Cc1cccc(C[C@@H]2NC(=O)[C@H](CC(=O)O)NC(=O)[C@H](Cc3ccc(OCC(=O)O)cc3)NC(=O)[C@H](CCCNC(N)=O)NC(=O)CSC[C@@H](C(=O)N[C@@H](CCN)C(=O)NCCCCCCCCCCC(=O)O)NC(=O)[C@H]([C@@H](C)O)NC(=O)[C@H](C(C)C)NC(=O)[C@H](CC3CCCCC3)NC(=O)[C@H](CCN)NC(=O)[C@@H](CC(C)C)NC(=O)[C@H](CCCN)NC(=O)[C@H](CCCNC(N)=O)NC(=O)[C@H](Cc3ccc(-c4ccccc4)cc3)NC(=O)[C@H](C(C)C)NC2=O)c1` [Compound 2824] ({CH2CO}-[Cit]Y(Carboxymethyl)D[Phe(3-Me)]V[Bip][Cit][Orn][dL][Dab][Cha]VTC[Dab][Aun]-OH; thioether N-14): the pIC50 was 7.59.
Under `Cc1cccc(C[C@@H]2NC(=O)[C@H](CC(=O)O)NC(=O)[C@H](Cc3ccc(O)cc3)NC(=O)[C@H](CC(N)=O)NC(=O)CSC[C@@H](C(=O)N[C@@H](CCN)C(=O)NCCCCCCCCCCC(=O)O)NC(=O)[C@H](CCCN)NC(=O)[C@H](C(C)C)NC(=O)[C@H](CC3CCCCC3)NC(=O)[C@H](CCN)NC(=O)[C@@H](CC(C)C)NC(=O)[C@H](CCCN)NC(=O)[C@H](Cc3ccc(O)cc3)NC(=O)[C@H](Cc3ccc(-c4ccccc4)cc3)NC(=O)[C@H](C(C)C)NC2=O)c1` [Compound 2696] ({CH2CO}-NYD[Phe(3-Me)]V[Bip]Y[Orn][dL][Dab][Cha]V[Orn]C[Dab][Aun]-OH; thioether N-14) stands 7.72.
Regarding `Cc1cccc(C[C@@H]2NC(=O)[C@H](CC(=O)O)NC(=O)[C@H](Cc3ccc(OCC(=O)O)cc3)NC(=O)[C@H](Cc3ccncc3)NC(=O)CSC[C@@H](C(=O)N[C@@H](CCN)C(=O)NCCOCCOCC(=O)NCCCCCCCCCCC(=O)O)NC(=O)[C@H](CCC(=O)O)NC(=O)[C@H](C(C)(C)O)NC(=O)[C@H](CC3CCCCC3)NC(=O)[C@H](CCN)NC(=O)[C@@H](CC(C)C)NC(=O)[C@H](CCC(N)=O)NC(=O)[C@H](Cc3ccc(OCC(=O)O)cc3)NC(=O)[C@H](Cc3ccc(-c4ccccc4)cc3)NC(=O)[C@H](Cc3ccc(OCC(=O)O)cc3)NC2=O)c1` [Compound 3746] ({CH2CO}-[4Pal]Y(Carboxymethyl)D[Phe(3-Me)]Y(Carboxymethyl)[Bip]Y(Carboxymethyl)Q[dL][Dab][Cha][Val(3-OH)]EC[Dab][AEEA][Aun]-OH; thioether N-14), the pIC50 is 8.17.
Take `Cc1cccc(C[C@@H]2NC(=O)[C@H](CC(=O)O)NC(=O)[C@H](Cc3ccc(OCC(=O)O)cc3)NC(=O)[C@H](CCCNC(=N)N)NC(=O)CSC[C@@H](C(=O)N[C@@H](CCCCN)C(=O)NCCCCCCCCCCC(=O)O)NC(=O)[C@H](CCCN)NC(=O)[C@H](C(C)C)NC(=O)[C@H](CC3CCCCC3)NC(=O)[C@H](CCN)NC(=O)[C@@H](CC(C)C)NC(=O)[C@H](CCCN)NC(=O)[C@H](C(C)C)NC(=O)[C@H](Cc3ccc(-c4ccccc4)cc3)NC(=O)[C@H](C(C)C)NC2=O)c1` [Compound 3219] ({CH2CO}-RY(Carboxymethyl)D[Phe(3-Me)]V[Bip]V[Orn][dL][Dab][Cha]V[Orn]CK[Aun]-OH; thioether N-14): the pIC50 was 8.02.
Regarding `Cc1cccc(C[C@@H]2NC(=O)[C@H](CC(=O)O)NC(=O)[C@H](Cc3ccc(OCC(=O)O)cc3)NC(=O)[C@H](Cc3ccc(C(N)=O)cc3)NC(=O)CSC[C@@H](C(=O)N[C@@H](CCCN)C(=O)N[C@@H](CO)C(=O)NCCCCCCCCCCCC(=O)O)NC(=O)[C@H](CO)NC(=O)[C@H](C(C)(C)O)NC(=O)[C@H](CC3CCCCC3)NC(=O)[C@H](CCN)NC(=O)[C@@H](CC(C)C)NC(=O)[C@H](CCCN)NC(=O)[C@H](Cc3ccc(OCC(=O)O)cc3)NC(=O)[C@H](Cc3ccc(-c4ccccc4)cc3)NC(=O)[C@H](Cc3ccc(OCC(=O)O)cc3)NC2=O)c1` [Compound 3618] ({CH2CO}-[Phe(4-CONH2)]Y(Carboxymethyl)D[Phe(3-Me)]Y(Carboxymethyl)[Bip]Y(Carboxymethyl)[Orn][dL][Dab][Cha][Val(3-OH)]SC[Orn]S[12Ado]-OH; thioether N-14), the pIC50 is 7.66.
Under `Cc1cc(C[C@@H]2NC(=O)[C@H](CC(=O)O)NC(=O)[C@H](Cc3ccc(OCC(=O)O)cc3)NC(=O)[C@H](CN)NC(=O)CSC[C@@H](C(=O)N[C@@H](CCN)C(=O)NCCCCCCCCCCC(=O)O)NC(=O)[C@H](CCO)NC(=O)[C@H](C(C)C)NC(=O)[C@H](CC3CCCCC3)NC(=O)[C@H](CCN)NC(=O)[C@@H](CC(C)C)NC(=O)[C@H](CCCN)NC(=O)[C@H](Cc3ccc(OCC(=O)O)cc3)NC(=O)[C@H](Cc3ccc(-c4ccccc4)cc3)NC(=O)[C@H](C(C)C)NC2=O)ccc1O` [Compound 2096] ({CH2CO}-[Dap]Y(Carboxymethyl)D[Tyr(3-Me)]V[Bip]Y(Carboxymethyl)[Orn][dL][Dab][Cha]V[hSer]C[Dab][Aun]-OH; thioether N-14) stands 7.44.
Take `Cc1cccc(C[C@@H]2NC(=O)C(CC(=O)O)NC(=O)[C@H](Cc3ccc(OCC(=O)O)cc3)NC(=O)[C@H](CN)NC(=O)CSC[C@@H](C(=O)NCCOCCOCC(=O)N[C@@H](CN)C(=O)NCCCCCCCCCCC(=O)O)NC(=O)[C@H]([C@@H](C)O)NC(=O)[C@H](C(C)C)NC(=O)[C@H](CC3CCCCC3)NC(=O)[C@H](CCN)NC(=O)[C@@H](CC(C)C)NC(=O)[C@H](CCCN)NC(=O)[C@H](CCCNC(N)=O)NC(=O)C(Cc3ccc(-c4ccccc4)cc3)NC(=O)[C@H](C(C)C)NC2=O)c1` (stereo partly drawn) [Compound 1176] ({CH2CO}-[Dap]Y(Carboxymethyl)[ξD][Phe(3-Me)]V[ξBip][Cit][Orn][dL][Dab][Cha]VTC[AEEA][Dap][Aun]-OH; thioether N-14): the negative logarithm of the IC50 (pIC50) is 8.14.
Under `CCC(C)[C@@H]1NC(=O)[C@H](Cc2ccc(-c3ccccc3)cc2)NC(=O)[C@H](C(C)C)NC(=O)[C@H](Cc2c[nH]c3ccccc23)NC(=O)[C@H](CC(=O)O)NC(=O)[C@H](Cc2ccc(C(=O)O)cc2)NC(=O)[C@H](Cc2ccncc2)NC(=O)CSC[C@@H](C(=O)N[C@H](CC(N)=O)C(=O)NCCOCCOCC(=O)N[C@@H](CCCN)C(=O)NCCCCCCCCCCC(=O)O)NC(=O)[C@H](CO)NC(=O)[C@H](C(C)C)NC(=O)[C@H](CC2CCCCC2)NC(=O)[C@H](CCN)NC(=O)[C@@H](CC(C)C)NC(=O)[C@H](CCCN)NC1=O` (stereo partly drawn) [Compound 3058] ({CH2CO}-[4Pal][Phe(4-COOH)]DWV[Bip][Ile(3ξ)][Orn][dL][Dab][Cha]VSC[dN][AEEA][Orn][Aun]-OH; thioether N-14) stands 7.89.
